From PubChem BioAssay (NCI)
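These data come from cells grown in 96-well plates and exposed to compound for 48 hours at five concentrations. GI50 marks 50% less growth. TGI: total growth inhibition.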

Tests used:
Experiment in all cases: inhibition of tumour cell growth, NCI panel, 48 h; in the data active = GI50 below about 0.43 µM; inactive = the rest
[1] = test system: SK-MEL-2 melanoma
[2] = test system: COLO 205 colon
[3] = test system: UO-31 renal
[4] = test system: NCI-H460 lung
[5] = test system: NCI-H522 lung
[6] = test system: DU-145 prostate
[7] = test system: A498 renal
[8] = test system: ACHN renal
[9] = test system: SF-268 CNS
[10] = test system: A549 NSCLC
[11] = test system: MDA-MB-435
[12] = test system: HS 578T breast
[13] = test system: NCI-H226 lung
[14] = test system: OVCAR-3 ovarian
[15] = test system: RPMI-8226 leukemia
[16] = test system: KM12 colon
[17] = test system: HCT-116 colon
[18] = test system: OVCAR-4 ovarian
[19] = test system: MOLT-4 leukemia
[20] = test system: RXF 393 renal
[21] = test system: HCC-2998 colon
[22] = test system: MALME-3M melanoma
[23] = test system: TK-10 renal
[24] = test system: LOX IMVI melanoma
[25] = test system: CAKI-1 renal
[26] = test system: HCT-15 colon
[27] = test system: HL-60(TB) leukemia
[28] = test system: CCRF-CEM leukemia
[29] = test system: UACC-62 melanoma
[30] = test system: UACC-257 melanoma
[31] = test system: OVCAR-8 ovarian
[32] = test system: MCF7 breast
[33] = test system: BT-549 breast
[34] = test system: SK-OV-3 ovarian
[35] = test system: IGROV1 ovarian
[36] = test system: SNB-19 CNS
[37] = test system: SN12C renal
[38] = test system: SK-MEL-28 melanoma
[39] = test system: T-47D breast
[40] = test system: U251 CNS
[41] = test system: HT29 colon
[42] = test system: HOP-92 NSCLC
[43] = test system: SF-295 CNS
[44] = test system: NCI-H23 lung
[45] = test system: HOP-62 NSCLC
[46] = test system: SW-620 colon
[47] = test system: 786-0 renal
[48] = test system: SF-539 CNS
[49] = test system: M14 melanoma
[50] = test system: MDA-MB-231 breast
[51] = test system: SNB-75 CNS
[52] = test system: PC-3 prostate
[53] = test system: EKVX NSCLC
[54] = test system: K-562 leukemia
[55] = test system: OVCAR-5 ovarian
[56] = test system: NCI/ADR-RES ovarian
[57] = test system: SK-MEL-5 melanoma

O=C(CCCBr)Nc1ccccc1C#C/C=C\C#Cc1ccccc1C(F)(F)F
29.2 µM: TGI [56]
35.7 µM: TGI [28]
29.5 µM: TGI [49]
48.9 µM: TGI [14]
> 50 µM: TGI [1] | TGI [2] | TGI [3] | TGI [4] | TGI [5] | TGI [6] | TGI [8] | TGI [9] | TGI [10] | TGI [12] | TGI [15] | TGI [16] | TGI [19] | TGI [22] | TGI [23] | TGI [24] | TGI [25] | TGI [26] | TGI [29] | TGI [30] | TGI [31] | TGI [32] | TGI [33] | TGI [34] | TGI [36] | TGI [39] | TGI [42] | TGI [43] | TGI [44] | TGI [46] | TGI [47] | TGI [48] | TGI [52] | TGI [53] | TGI [54] | TGI [55] | TGI [57]
31.1 µM: TGI [40]
inactive: GI50 [1] 27.8 µM | GI50 [2] > 50 µM | GI50 [3] 20.2 µM | GI50 [4] 19.2 µM | GI50 [5] 15.5 µM | GI50 [6] > 50 µM | GI50 [7] 15.8 µM | GI50 [8] 26.8 µM | GI50 [9] 35.3 µM | GI50 [10] 19.3 µM | GI50 [11] 13.5 µM | GI50 [12] 36.5 µM | GI50 [13] 13.9 µM | GI50 [14] 13.3 µM | GI50 [15] 14.2 µM | GI50 [16] 17.4 µM | GI50 [17] 10.9 µM | GI50 [18] 10.1 µM | GI50 [19] 16.3 µM | GI50 [20] 8.35 µM | GI50 [21] 7.25 µM | GI50 [22] 18.7 µM | GI50 [23] 38.8 µM | GI50 [24] 22.6 µM | GI50 [25] 15.3 µM | GI50 [26] 20.6 µM | GI50 [27] 16.1 µM | GI50 [28] 15 µM | GI50 [29] 14.1 µM | GI50 [30] 19.1 µM | GI50 [31] 24.2 µM | GI50 [32] 26.6 µM | GI50 [33] 19.8 µM | GI50 [34] > 50 µM | GI50 [35] 6.75 µM | GI50 [36] > 50 µM | GI50 [37] 10.6 µM | GI50 [38] 10.3 µM | GI50 [39] > 50 µM | GI50 [40] 11.3 µM | GI50 [41] 8.56 µM | GI50 [42] 19.7 µM | GI50 [43] 27.6 µM | GI50 [44] 16.2 µM | GI50 [45] 4.76 µM | GI50 [46] 22.5 µM | GI50 [47] 13.5 µM | GI50 [48] 21.2 µM | GI50 [49] 12.1 µM | GI50 [50] 12.8 µM | GI50 [51] 9.07 µM | GI50 [52] 23.1 µM | GI50 [53] 39.1 µM | GI50 [54] 21.6 µM | GI50 [55] > 50 µM | GI50 [56] 11.9 µM | GI50 [57] 38.3 µM
31.9 µM: TGI [18]
28.4 µM: TGI [20]
44.8 µM: TGI [13]
32.6 µM: TGI [11]
43.7 µM: TGI [17]
20.8 µM: TGI [41]
20.3 µM: TGI [21]
33.4 µM: TGI [50]
26.9 µM: TGI [35]
29.9 µM: TGI [37]
47.3 µM: TGI [7]
20.6 µM: TGI [45]
45 µM: TGI [27]
40.6 µM: TGI [51]
25.7 µM: TGI [38]
